Laboratory results as given in patent US12527779B2, “Prostaglandin E2 (PGE2) EP4 receptor antagonists” (Domain Therapeutics, priority 2019, dated 2026).
pIC50: −log10 of the molar value. Where “and” joins values, the source holds several entries; their conditions need not be identical. Equal values may be shown once.

How the values were obtained:
[1] = target: T1, human EP4 (hEP4) receptor (Homo sapiens, UniProt P35408); assay: In vitro human EP4 functional antagonist activity using BRET biosensors (cAMP EPAC biosensor, TCS2510 stimulation); assay type: cell-based; settings: antagonist activity vs EC60 TCS2510, hEP4 in HEK-293 T cells
T1 construct: expressed in transfected cells; host or cells: HEK-293 T cells, transient co-transfection with polyethylenimine
T1 sequence (P35408 whole entry): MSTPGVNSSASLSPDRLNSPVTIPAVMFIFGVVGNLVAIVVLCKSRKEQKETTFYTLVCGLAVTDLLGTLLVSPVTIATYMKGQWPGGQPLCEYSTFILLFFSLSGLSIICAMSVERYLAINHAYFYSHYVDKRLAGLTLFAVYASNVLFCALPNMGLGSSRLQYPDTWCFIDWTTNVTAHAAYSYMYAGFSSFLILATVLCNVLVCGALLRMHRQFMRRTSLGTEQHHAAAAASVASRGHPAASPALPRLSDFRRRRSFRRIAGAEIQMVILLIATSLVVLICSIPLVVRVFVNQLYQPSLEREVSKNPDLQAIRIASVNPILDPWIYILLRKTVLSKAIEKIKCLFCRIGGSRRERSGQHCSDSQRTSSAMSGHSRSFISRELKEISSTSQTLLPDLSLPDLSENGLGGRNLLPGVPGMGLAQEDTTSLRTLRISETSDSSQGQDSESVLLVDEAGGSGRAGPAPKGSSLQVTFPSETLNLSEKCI
How it was run: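 HEK-293T cells transiently co-transfected with hEP4 and EPAC cAMP BRET biosensor (luciferase/GFP), assayed 48 h later in HEPES-buffered saline after 1 h at 22 °C. After 5 min with compound, cells stimulated with EC60 TCS2510 and BRET read for 10 min; IC50 from 10-point, 4.5-log variable-slope fits, duplicate, two experiments.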

MCA205 tumor cells = assay: In vivo anti-tumoral activity of Example 166 in a MCA205 tumor model; design: species or system C57BL/6 mice
Experimental: Sarcoma MCA205 tumor cell line was cultured in vitro in DMEM supplemented with 10% FBS, 1% Penicillin-Streptomycin, 1 mM HEPES. Before inoculation in mice, cell viability was assessed by flow cytometry analysis and viable cell gating. A cell suspension was prepared according to the viable cell count.
Female C57BL/6 mice were inoculated subcutaneously in the right flank region with MCA205 tumor cells (0.5×10^6) in 0.1 ml of PBS for tumor development on day 1. Tumor volumes were measured thrice per week in two dimensions using a caliper, and the volume was expressed in mm^3 using the formula: “V=(L×W×W)/2”, where V is tumor volume, L is tumor length (the longest tumor dimension) and W is tumor width (the longest tumor dimension perpendicular to L). When the mean tumor size reached approximately 80 mm^3, mice were randomly allocated into groups (10 mice per group) and treated with or without an anti-PD-1 antibody (RPM1-14, 5 mg/kg, ip, on days 1, 4, 7, 10), with or without the compound of Example 166 (30 or 100 mg/kg, po, QD, 5% DMSO/95% (10% w/v solution of HP-3-CD in water) v/v) for 23 days).
Animals were checked daily for morbidity and mortality. During routine monitoring, the animals were checked for any effects on tumor growth and treatments on behavior such as mobility, food and water consumption, body weight gain/loss (body weights were measured thrice per week), eye/hair matting and any other abnormalities.

pIC50 [1]: > 7.00
Structure (SMILES): C[C@H](NC(=O)C1(N2CC[C@@H](Oc3cccc(C(F)(F)F)c3)C2)CC1)c1ccc(C(=O)O)cc1.Cl [Example 166, 4-[(1S)-1-[[1-[(3R)-3-[3-(Trifluoromethyl)phenoxy]pyrrolidin-1-yl]cyclopropane-1-carbonyl]amino]ethyl]benzoic acid, hydrochloride]
Tumor Growth Inhibition TGI (%) (MCA205 tumor cells; Example 166 30 mg/kg po QD + anti-PD1 antibody 5 mg/kg ip, day 1): 0.1% | Tumor Growth Inhibition TGI (%) (MCA205 tumor cells; Example 166 30 mg/kg po QD + anti-PD1 antibody 5 mg/kg ip, day 3): 8.3% | Tumor Growth Inhibition TGI (%) (MCA205 tumor cells; Example 166 30 mg/kg po QD + anti-PD1 antibody 5 mg/kg ip, day 6): 30.6% | Tumor Growth Inhibition TGI (%) (MCA205 tumor cells; Example 166 30 mg/kg po QD + anti-PD1 antibody 5 mg/kg ip, day 8): 47.4% | Tumor Growth Inhibition TGI (%) (MCA205 tumor cells; Example 166 30 mg/kg po QD + anti-PD1 antibody 5 mg/kg ip, day 10): 58.6% | Tumor Growth Inhibition TGI (%) (MCA205 tumor cells; Example 166 30 mg/kg po QD + anti-PD1 antibody 5 mg/kg ip, day 13): 55.7% | Tumor Growth Inhibition TGI (%) (MCA205 tumor cells; Example 166 30 mg/kg po QD + anti-PD1 antibody 5 mg/kg ip, day 15): 49.3% | Tumor Growth Inhibition TGI (%) (MCA205 tumor cells; Example 166 30 mg/kg po QD + anti-PD1 antibody 5 mg/kg ip, day 17): 52.2% | Tumor Growth Inhibition TGI (%) (MCA205 tumor cells; Example 166 30 mg/kg po QD, day 1): −6.1% | Tumor Growth Inhibition TGI (%) (MCA205 tumor cells; Example 166 30 mg/kg po QD, day 3): −6.3% | Tumor Growth Inhibition TGI (%) (MCA205 tumor cells; Example 166 30 mg/kg po QD, day 6): −22.4% | Tumor Growth Inhibition TGI (%) (MCA205 tumor cells; Example 166 30 mg/kg po QD, day 8): 9.8% | Tumor Growth Inhibition TGI (%) (MCA205 tumor cells; Example 166 30 mg/kg po QD, day 10): 10.2% | Tumor Growth Inhibition TGI (%) (MCA205 tumor cells; Example 166 30 mg/kg po QD, day 13): 6.4% | Tumor Growth Inhibition TGI (%) (MCA205 tumor cells; Example 166 30 mg/kg po QD, day 15): 4.3% | Tumor Growth Inhibition TGI (%) (MCA205 tumor cells; Example 166 30 mg/kg po QD, day 17): 10.8% | Tumor Growth Inhibition TGI (%) (MCA205 tumor cells; Example 166 100 mg/kg po QD + anti-PD1 antibody 5 mg/kg ip, day 1): 1.4% | Tumor Growth Inhibition TGI (%) (MCA205 tumor cells; Example 166 100 mg/kg po QD + anti-PD1 antibody 5 mg/kg ip, day 3): 12.2% | Tumor Growth Inhibition TGI (%) (MCA205 tumor cells; Example 166 100 mg/kg po QD + anti-PD1 antibody 5 mg/kg ip, day 6): 34.3% | Tumor Growth Inhibition TGI (%) (MCA205 tumor cells; Example 166 100 mg/kg po QD + anti-PD1 antibody 5 mg/kg ip, day 8): 50.2% | Tumor Growth Inhibition TGI (%) (MCA205 tumor cells; Example 166 100 mg/kg po QD + anti-PD1 antibody 5 mg/kg ip, day 10): 66.6% | Tumor Growth Inhibition TGI (%) (MCA205 tumor cells; Example 166 100 mg/kg po QD + anti-PD1 antibody 5 mg/kg ip, day 13): 70.4% | Tumor Growth Inhibition TGI (%) (MCA205 tumor cells; Example 166 100 mg/kg po QD + anti-PD1 antibody 5 mg/kg ip, day 15): 67.3% | Tumor Growth Inhibition TGI (%) (MCA205 tumor cells; Example 166 100 mg/kg po QD + anti-PD1 antibody 5 mg/kg ip, day 17, hydrochloride): 68.0% and 68.1% | Tumor Growth Inhibition TGI (%) (MCA205 tumor cells; Example 166 100 mg/kg po QD, day 1): −0.7% | Tumor Growth Inhibition TGI (%) (MCA205 tumor cells; Example 166 100 mg/kg po QD, day 3): 13.2% | Tumor Growth Inhibition TGI (%) (MCA205 tumor cells; Example 166 100 mg/kg po QD, day 6): 12.1% | Tumor Growth Inhibition TGI (%) (MCA205 tumor cells; Example 166 100 mg/kg po QD, day 8): 16.7% | Tumor Growth Inhibition TGI (%) (MCA205 tumor cells; Example 166 100 mg/kg po QD, day 10): 25.7% | Tumor Growth Inhibition TGI (%) (MCA205 tumor cells; Example 166 100 mg/kg po QD, day 13): 32.6% | Tumor Growth Inhibition TGI (%) (MCA205 tumor cells; Example 166 100 mg/kg po QD, day 15): 23.6% | Tumor Growth Inhibition TGI (%) (MCA205 tumor cells; Example 166 100 mg/kg po QD, day 17, hydrochloride, 100 mg/kg): 31.0%
